Where two headings read alike, the source gives them in different places.
Biological target: Nav1.6 (Homo sapiens, UniProt Q9UQD0)
Assay: Nav two-pulse protocol, IonWorks Quattro electrophysiology
Assay type: cell-based
Details: -120 mV to 0 mV, compound incubated 300 s
Procedure: Compound Plate Preparation
Supplied compounds were sent as Assay Ready Plates, with 2 μL per well of compound in DMSO at 300× the final assay concentrations as described above and in the project proposal. All assay plates are stored at in a −80° C. freezer.
On the day of the assay, 198 μL of external solution was added to the appropriate assay plate and mixed thoroughly. This provided a 1:100 dilution. A further 1:3 dilution occurred upon addition to the cells in the IonWorks, giving a 1:300 dilution in total.
On each assay plate, at least 8 wells were reserved for vehicle control (0.3% DMSO) and at least 8 wells for each positive control specific to the cell line tested. The positive controls were tested in an 8-point dose response with 3-fold dilutions to determine an IC50 value for each run. The positive control compounds are outlined below.
Ion Channel Positive Control & Concentrations
Nav1.6/1.2 Lidocaine: 8, 3-fold dilutions starting at 100 μM
Electrophysiological Recording Solutions
The solutions for recording currents were are follows:
Amphotericin B was used to obtain electrical access to the cell interior at a final concentration of 200 μg/ml in internal recording solution.
Experimental Protocols & Data Analysis
Nav currents were evoked by stepping from a holding potential of −120 mV to 0 mV for 2.5 s (pulse 1), followed by a 5 ms inter-pulse interval, and stepping from a holding potential of −120 mV to 0 mV for 20 ms (pulse 2). The voltage protocol was applied (Pre), compounds added, incubated for 300 seconds, and the voltage protocol was applied a final time (Post) on the IonWorks Quattro.
The parameters measured were the maximum inward current evoked on stepping to 0 mV from the 1st and 2nd pulse. All data were filtered for seal quality, seal drop, and current amplitude. The peak current amplitude (Peak) was calculated before (Pre) and after (Post) compound addition to the amount of block was assessed by dividing the Post-compound current amplitude by the Pre-compound current amplitude. These procedures were implemented for the 1st and 2nd pulse.

Sequence of Nav1.6 (Q9UQD0 whole entry): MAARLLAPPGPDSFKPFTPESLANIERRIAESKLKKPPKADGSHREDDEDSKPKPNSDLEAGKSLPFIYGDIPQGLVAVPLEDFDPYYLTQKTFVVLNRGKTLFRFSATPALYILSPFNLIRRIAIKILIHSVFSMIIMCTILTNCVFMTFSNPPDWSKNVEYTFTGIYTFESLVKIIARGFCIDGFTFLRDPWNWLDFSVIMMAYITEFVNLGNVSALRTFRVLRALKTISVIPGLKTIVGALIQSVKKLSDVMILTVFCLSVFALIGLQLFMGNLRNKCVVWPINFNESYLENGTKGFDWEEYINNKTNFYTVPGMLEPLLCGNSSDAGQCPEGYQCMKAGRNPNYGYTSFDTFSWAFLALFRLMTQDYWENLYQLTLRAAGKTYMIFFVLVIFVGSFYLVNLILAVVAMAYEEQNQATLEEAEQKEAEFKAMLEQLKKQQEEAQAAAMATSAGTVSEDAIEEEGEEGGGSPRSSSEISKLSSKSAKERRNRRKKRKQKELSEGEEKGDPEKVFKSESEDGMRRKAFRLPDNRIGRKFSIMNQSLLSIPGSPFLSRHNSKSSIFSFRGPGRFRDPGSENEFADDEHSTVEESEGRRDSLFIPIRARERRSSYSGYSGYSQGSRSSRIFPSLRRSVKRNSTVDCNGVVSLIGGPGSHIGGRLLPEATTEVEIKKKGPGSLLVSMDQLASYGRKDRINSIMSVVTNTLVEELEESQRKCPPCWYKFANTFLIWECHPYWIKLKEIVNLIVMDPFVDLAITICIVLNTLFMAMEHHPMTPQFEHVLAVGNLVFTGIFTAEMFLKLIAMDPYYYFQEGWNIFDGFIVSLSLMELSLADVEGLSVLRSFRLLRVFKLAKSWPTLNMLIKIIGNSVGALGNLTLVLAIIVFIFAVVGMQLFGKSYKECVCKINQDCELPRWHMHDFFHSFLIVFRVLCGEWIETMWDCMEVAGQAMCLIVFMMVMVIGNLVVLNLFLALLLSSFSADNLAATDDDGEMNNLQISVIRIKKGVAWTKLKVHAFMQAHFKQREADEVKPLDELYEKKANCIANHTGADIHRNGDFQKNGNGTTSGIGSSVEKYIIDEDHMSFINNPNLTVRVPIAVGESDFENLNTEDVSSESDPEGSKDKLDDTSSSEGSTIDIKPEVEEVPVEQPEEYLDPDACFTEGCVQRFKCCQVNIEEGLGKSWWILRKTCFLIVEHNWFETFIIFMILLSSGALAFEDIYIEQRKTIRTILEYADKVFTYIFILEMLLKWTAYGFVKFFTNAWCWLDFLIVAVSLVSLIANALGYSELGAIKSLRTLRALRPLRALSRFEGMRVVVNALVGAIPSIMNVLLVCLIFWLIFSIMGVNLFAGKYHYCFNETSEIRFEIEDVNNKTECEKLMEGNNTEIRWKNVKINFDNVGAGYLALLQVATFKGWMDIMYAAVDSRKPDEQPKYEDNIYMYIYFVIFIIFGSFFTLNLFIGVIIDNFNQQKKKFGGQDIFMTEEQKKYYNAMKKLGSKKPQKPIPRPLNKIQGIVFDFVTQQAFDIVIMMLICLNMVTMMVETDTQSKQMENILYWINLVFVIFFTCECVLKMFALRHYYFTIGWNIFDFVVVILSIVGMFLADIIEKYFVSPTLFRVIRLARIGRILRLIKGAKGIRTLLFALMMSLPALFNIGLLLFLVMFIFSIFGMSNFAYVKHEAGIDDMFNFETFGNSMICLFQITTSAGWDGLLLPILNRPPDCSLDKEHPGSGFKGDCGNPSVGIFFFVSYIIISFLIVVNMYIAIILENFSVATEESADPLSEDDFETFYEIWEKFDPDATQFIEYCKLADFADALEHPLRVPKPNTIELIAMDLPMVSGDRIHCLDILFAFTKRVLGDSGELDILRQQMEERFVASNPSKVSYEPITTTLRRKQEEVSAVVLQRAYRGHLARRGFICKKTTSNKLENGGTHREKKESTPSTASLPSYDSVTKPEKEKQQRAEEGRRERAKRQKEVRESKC

SMILES | IC50 (read-out: Nav1.6 Tonic) [µM] | IC50 (read-out: Nav1.6 inac) [µM]
CC(C)COc1cccc(CN2CCC(COCc3ccccn3)C2)c1 (stereo not drawn) [Compound 35, 2-[1-(3-Isobutoxy-benzyl)-pyrrolidin-3-ylmethoxymethyl]-pyridine] | > 20 | 1 to 5
CC(C)OCc1cccc(CN2CCC(CNC(=O)c3ccccn3)C2)c1 (stereo not drawn) [Compound 36, Pyridine-2-carboxylic acid [1-(3-isopropoxymethyl-benzyl)-pyrrolidin-3-ylmethyl]-amide] | > 20 | < 1
C[C@@]1(C(=O)NCc2ccccn2)CCN(Cc2cccc(Oc3ccccc3)c2)C1 [Compound 37, (R)-3-methyl-1-(3-phenoxybenzyl)-N-(pyridin-2-ylmethyl)pyrrolidine-3-carboxamide] | > 20 | 1 to 5
C[C@]1(C(=O)NCc2ccccn2)CCN(Cc2cccc(Oc3ccccc3)c2)C1 [Compound 38, (S)-3-methyl-1-(3-phenoxybenzyl)-N-(pyridin-2-ylmethyl)pyrrolidine-3-carboxamide] | > 20 | > 5
CC1(C(=O)N2CCNCC2)CCN(Cc2cccc(Oc3ccccc3)c2)C1 (stereo not drawn) [Compound 39, [3-Methyl-1-(3-phenoxy-benzyl)-pyrrolidin-3-yl]-piperazin-1-yl-methanone] | > 20 | 1 to 5
CCNC(=O)C1(C)CCN(C(=O)c2cccc(Oc3ccccc3)c2)C1 (stereo not drawn) [Compound 40, 3-Methyl-1-(3-phenoxy-benzoyl)-pyrrolidine-3-carboxylic acid ethylamide] | 10 to 20 | < 1
CCNC(=O)C1(C)CCN(Cc2cccc(OC(F)(F)F)c2)C1 (stereo not drawn) [Compound 41, 3-Methyl-1-(3-trifluoromethoxy-benzyl)-pyrrolidine-3-carboxylic acid ethylamide] | 10 to 20 | < 1
CC(C)C[S+]([O-])c1cccc(CN2CCC(C(=O)NCc3ccccn3)C2)c1 (stereo not drawn) [Compound 42, 1-[3-(2-Methyl-propane-1-sulfinyl)-benzyl]-pyrrolidine-3-carboxylic acid (pyridin-2-ylmethyl)-amide] | > 20 | > 5
Cc1cccc(Oc2cccc(CN3CCC(C(=O)NCc4ccccn4)C3)c2)c1 (stereo not drawn) [Compound 43, 1-(3-m-Tolyloxy-benzyl)-pyrrolidine-3-carboxylic acid (pyridin-2-ylmethyl)-amide] | > 20 | > 5
O=C(NCc1ccccn1)C1CCN(Cc2cccc(Oc3ncccn3)c2)C1 (stereo not drawn) [Compound 44, 1-[3-(Pyrimidin-2-yloxy)-benzyl]-pyrrolidine-3-carboxylic acid (pyridin-2-ylmethyl)-amide] | > 20 | > 5
Cc1cccc(Oc2cccc(CN3CCC(C)(C(=O)NCc4ccccn4)C3)c2)c1 (stereo not drawn) [Compound 45, 3-Methyl-1-(3-m-tolyloxy-benzyl)-pyrrolidine-3-carboxylic acid (pyridin-2-ylmethyl)-amide] | > 20 | > 5
CC(C)CSc1cccc(CN2CCC(C(=O)OCc3ccccn3)C2)c1 (stereo not drawn) [Compound 46, 1-(3-Isobutylsulfanyl-benzyl)-pyrrolidine-3-carboxylic acid pyridin-2-ylmethyl ester] | > 20 | 1 to 5
CC(C)CS(=O)(=O)c1cccc(CN2CCC(C(=O)OCc3ccccn3)C2)c1 (stereo not drawn) [Compound 47, 1-[3-(2-Methyl-propane-1-sulfonyl)-benzyl]-pyrrolidine-3-carboxylic acid pyridin-2-ylmethyl ester] | > 20 | 1 to 5
CC(C)COc1cccc(CN2CCC(c3noc(-c4ccccn4)n3)C2)c1 (stereo not drawn) [Compound 48, 2-{3-[1-(3-Isobutoxy-benzyl)-pyrrolidin-3-yl]-[1,2,4]oxadiazol-5-yl}-pyridine] | > 20 | 1 to 5
COc1cccnc1-c1nc(C2CCN(Cc3cccc(OCC(C)C)c3)C2)no1 (stereo not drawn) [Compound 49, 2-{3-[1-(3-Isobutoxy-benzyl)-pyrrolidin-3-yl]-[1,2,4]oxadiazol-5-yl}-3-methoxy-pyridine] | > 20 | 1 to 5
CC(C)COc1cccc(CN2CCC(c3noc(-c4ncccc4F)n3)C2)c1 (stereo not drawn) [Compound 50, 3-Fluoro-2-{3-[1-(3-isobutoxy-benzyl)-pyrrolidin-3-yl]-[1,2,4]oxadiazol-5-yl}-pyridine] | > 20 | > 5
Cc1cccnc1-c1nc(C2CCN(Cc3cccc(OCC(C)C)c3)C2)no1 (stereo not drawn) [Compound 51, 2-{3-[1-(3-Isobutoxy-benzyl)-pyrrolidin-3-yl]-[1,2,4]oxadiazol-5-yl}-3-methyl-pyridine] | > 20 | 1 to 5

SMILES | IC50 (read-out: Nav1.6 Tonic) [µM] | IC50 (read-out: Nav1.6 inac) [µM]
COc1ccnc(-c2nc(C3CCN(Cc4cccc(OCC(C)C)c4)C3)no2)c1 (stereo not drawn) [Compound 52, 2-{3-[1-(3-Isobutoxy-benzyl)-pyrrolidin-3-yl]-[1,2,4]oxadiazol-5-yl}-4-methoxy-pyridine] | > 20 | 1 to 5
CC(C)COc1cccc(CN2CCC(c3noc(-c4cc(Cl)ccn4)n3)C2)c1 (stereo not drawn) [Compound 53, 4-Chloro-2-{3-[1-(3-isobutoxy-benzyl)-pyrrolidin-3-yl]-[1,2,4]oxadiazol-5-yl}-pyridine] | > 20 | 1 to 5
COc1ccc(-c2nc(C3CCN(Cc4cccc(OCC(C)C)c4)C3)no2)nc1 (stereo not drawn) [Compound 54, 2-{3-[1-(3-Isobutoxy-benzyl)-pyrrolidin-3-yl]-[1,2,4]oxadiazol-5-yl}-5-methoxy-pyridine] | > 20 | 1 to 5
Cc1ccc(-c2nc(C3CCN(Cc4cccc(OCC(C)C)c4)C3)no2)nc1 (stereo not drawn) [Compound 55, 2-{3-[1-(3-Isobutoxy-benzyl)-pyrrolidin-3-yl]-[1,2,4]oxadiazol-5-yl}-5-methyl-pyridine] | > 20 | 1 to 5
COc1cccc(-c2nc(C3CCN(Cc4cccc(OCC(C)C)c4)C3)no2)n1 (stereo not drawn) [Compound 56, 2-{3-[1-(3-Isobutoxy-benzyl)-pyrrolidin-3-yl]-[1,2,4]oxadiazol-5-yl}-6-methoxy-pyridine] | > 20 | 1 to 5
CC(C)COc1cccc(CN2CCC(c3noc(Cc4ccccn4)n3)C2)c1 (stereo not drawn) [Compound 57, 2-{3-[1-(3-Isobutoxy-benzyl)-pyrrolidin-3-yl]-[1,2,4]oxadiazol-5-ylmethyl}-pyridine] | > 20 | 1 to 5
CC(C)COc1cccc(CN2CCC(c3noc(-c4cc(Br)ccn4)n3)C2)c1 (stereo not drawn) [Compound 58, 4-Bromo-2-{3-[1-(3-isobutoxy-benzyl)-pyrrolidin-3-yl]-[1,2,4]oxadiazol-5-yl}-pyridine] | > 20 | > 5
CC(C)COc1cccc(CN2CCC(c3noc(-c4ccc(F)cn4)n3)C2)c1 (stereo not drawn) [Compound 59, 5-Fluoro-2-{3-[1-(3-isobutoxy-benzyl)-pyrrolidin-3-yl]-[1,2,4]oxadiazol-5-yl}-pyridine] | > 20 | > 5
CC(C)COc1cccc(CN2CCC(n3cc(-c4ccccn4)nn3)C2)c1 (stereo not drawn) [Compound 60, 2-{1-[1-(3-Isobutoxy-benzyl)-pyrrolidin-3-yl]-1H-[1,2,3]triazol-4-yl}-pyridine] | > 20 | 1 to 5
Cc1cccc(-c2cn(C3CCN(Cc4cccc(OCC(C)C)c4)C3)nn2)n1 (stereo not drawn) [Compound 61, 2-{1-[1-(3-Isobutoxy-benzyl)-pyrrolidin-3-yl]-1H-[1,2,3]triazol-4-yl}-6-methyl-pyridine] | > 20 | > 5
COc1cccc(-c2cn(C3CCN(Cc4cccc(OCC(C)C)c4)C3)nn2)n1 (stereo not drawn) [Compound 62, 2-{1-[1-(3-Isobutoxy-benzyl)-pyrrolidin-3-yl]-1H-[1,2,3]triazol-4-yl}-6-methoxy-pyridine] | > 20 | 1 to 5
CC(C)COc1cccc(CN2CCC(n3cc(-c4cccc(Br)n4)nn3)C2)c1 (stereo not drawn) [Compound 63, 2-Bromo-6-{1-[1-(3-isobutoxy-benzyl)-pyrrolidin-3-yl]-1H-[1,2,3]triazol-4-yl}-pyridine] | > 20 | > 5
CC(C)COc1cccc(CN2CCC(c3nnc(CO)o3)C2)c1 (stereo not drawn) [Compound 64, {5-[1-(3-Isobutoxy-benzyl)-pyrrolidin-3-yl]-[1,3,4]oxadiazol-2-yl}-methanol] | > 20 | 1 to 5
COc1ccccc1CNC(=O)C1CCN(Cc2cccc(Oc3ccccc3)c2)C1 (stereo not drawn) [Compound 65, 1-(3-Phenoxy-benzyl)-pyrrolidine-3-carboxylic acid 2-methoxy-benzylamide] | > 20 | < 1
COc1ccc(CNC(=O)C2CCN(Cc3cccc(Oc4ccccc4)c3)C2)cc1 (stereo not drawn) [Compound 66, 1-(3-Phenoxy-benzyl)-pyrrolidine-3-carboxylic acid 4-methoxy-benzylamide] | 10 to 20 | < 1
O=C(NCc1ccc(OC(F)(F)F)cc1)C1CCN(Cc2cccc(Oc3ccccc3)c2)C1 (stereo not drawn) [Compound 67, 1-(3-Phenoxy-benzyl)-pyrrolidine-3-carboxylic acid 4-trifluoromethoxy-benzylamide] | 10 to 20 | < 1

— patent US9676757B2, “Heterocyclic compounds as NaV channel inhibitors and uses thereof” (Merck Patent GmbH, priority 2014, dated 2017)
